The target in experiment [1] is T1, Alpha-1B adrenergic receptor (Rattus norvegicus, UniProt P15823).
T1 sequence (P15823 whole entry): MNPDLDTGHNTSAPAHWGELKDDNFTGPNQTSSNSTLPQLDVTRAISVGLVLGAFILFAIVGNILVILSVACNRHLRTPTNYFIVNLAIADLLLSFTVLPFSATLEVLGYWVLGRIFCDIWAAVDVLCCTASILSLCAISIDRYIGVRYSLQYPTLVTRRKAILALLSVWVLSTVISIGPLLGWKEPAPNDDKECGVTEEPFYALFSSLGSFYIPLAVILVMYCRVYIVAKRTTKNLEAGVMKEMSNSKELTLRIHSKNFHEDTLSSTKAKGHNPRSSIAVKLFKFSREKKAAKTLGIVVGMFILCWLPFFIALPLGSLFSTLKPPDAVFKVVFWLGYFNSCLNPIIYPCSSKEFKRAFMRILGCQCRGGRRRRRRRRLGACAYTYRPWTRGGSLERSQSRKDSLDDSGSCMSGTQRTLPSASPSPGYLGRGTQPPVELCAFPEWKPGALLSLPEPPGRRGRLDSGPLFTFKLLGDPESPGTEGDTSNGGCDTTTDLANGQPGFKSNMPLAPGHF
The experiment in a line: DRUGMATRIX: Alpha-1B adrenergic receptor radioligand binding (ligand: prazosin). Format: cell membranes, Wistar, Liver, Membrane. To be noted: Not Active = under 50% inhibition at 10 µM.

In experiment [2] the target is 5-hydroxytryptamine receptor 4 (Cavia porcellus, UniProt O70528). Format: cell membranes, Dunkin-Hartley, Striatum, Membrane. Also: in other assays of this panel Not Active means under 50% inhibition at 10 µM.
The target of another experiment is Vasopressin V1a receptor (Homo sapiens, UniProt P37288). Format: cell membranes, Membrane. To be noted: hek293. Also: in other assays of this panel Not Active means under 50% inhibition at 10 µM.
Experiment [3] addresses T2, C-C chemokine receptor type 4 (Homo sapiens, UniProt P51679).
T2 sequence (P51679 whole entry): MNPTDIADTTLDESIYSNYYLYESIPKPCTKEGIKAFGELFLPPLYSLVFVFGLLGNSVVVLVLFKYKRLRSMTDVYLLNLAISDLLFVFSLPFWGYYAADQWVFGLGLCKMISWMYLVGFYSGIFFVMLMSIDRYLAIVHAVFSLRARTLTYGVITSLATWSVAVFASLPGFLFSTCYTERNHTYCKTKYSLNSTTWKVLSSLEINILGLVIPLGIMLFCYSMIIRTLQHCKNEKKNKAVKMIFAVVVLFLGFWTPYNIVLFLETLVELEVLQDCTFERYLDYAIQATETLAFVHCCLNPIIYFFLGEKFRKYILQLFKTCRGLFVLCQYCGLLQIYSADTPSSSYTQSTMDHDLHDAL
The format is cell membranes, Chem-1, Membrane. To be noted: chem-1.

The target of experiment [4] is T3, C-X-C chemokine receptor type 1 (Homo sapiens, UniProt P25024). Also: in other assays of this panel Not Active means under 50% inhibition at 10 µM.
T3 sequence (P25024 whole entry): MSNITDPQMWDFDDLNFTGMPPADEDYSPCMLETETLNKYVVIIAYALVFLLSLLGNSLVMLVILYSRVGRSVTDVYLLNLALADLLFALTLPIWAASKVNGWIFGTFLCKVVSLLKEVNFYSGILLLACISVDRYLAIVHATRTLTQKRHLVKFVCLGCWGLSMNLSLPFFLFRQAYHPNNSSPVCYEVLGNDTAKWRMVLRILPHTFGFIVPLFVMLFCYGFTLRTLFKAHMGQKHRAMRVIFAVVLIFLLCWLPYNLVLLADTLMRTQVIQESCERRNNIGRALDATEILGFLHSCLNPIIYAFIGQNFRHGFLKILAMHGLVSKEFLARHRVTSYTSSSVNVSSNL

A further experiment deals with Glycine receptor (Rattus norvegicus, UniProt P22771+P24524+P07727+P20781). Format: cell membranes, Wistar, Spinal cord, Membrane.
In another experiment the target is Estrogen receptor beta (Homo sapiens, UniProt Q92731). To be noted: sf9. Also: in other assays of this panel Not Active means under 50% inhibition at 10 µM.
Chain of Estrogen receptor beta (Q92731 whole entry): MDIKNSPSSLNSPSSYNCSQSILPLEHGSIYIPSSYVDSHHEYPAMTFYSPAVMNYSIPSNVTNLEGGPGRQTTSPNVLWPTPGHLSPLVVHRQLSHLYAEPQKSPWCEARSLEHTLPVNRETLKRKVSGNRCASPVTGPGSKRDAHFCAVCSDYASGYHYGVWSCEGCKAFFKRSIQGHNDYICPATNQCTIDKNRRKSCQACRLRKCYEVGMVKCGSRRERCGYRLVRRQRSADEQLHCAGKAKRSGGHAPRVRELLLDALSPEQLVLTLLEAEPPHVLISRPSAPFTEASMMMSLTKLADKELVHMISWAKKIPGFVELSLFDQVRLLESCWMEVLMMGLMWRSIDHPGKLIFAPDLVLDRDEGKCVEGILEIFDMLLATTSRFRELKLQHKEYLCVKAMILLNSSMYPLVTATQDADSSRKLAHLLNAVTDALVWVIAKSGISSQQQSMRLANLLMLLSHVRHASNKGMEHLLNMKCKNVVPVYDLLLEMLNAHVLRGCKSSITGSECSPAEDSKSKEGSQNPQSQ

Chain of Vasopressin V1a receptor (P37288 whole entry): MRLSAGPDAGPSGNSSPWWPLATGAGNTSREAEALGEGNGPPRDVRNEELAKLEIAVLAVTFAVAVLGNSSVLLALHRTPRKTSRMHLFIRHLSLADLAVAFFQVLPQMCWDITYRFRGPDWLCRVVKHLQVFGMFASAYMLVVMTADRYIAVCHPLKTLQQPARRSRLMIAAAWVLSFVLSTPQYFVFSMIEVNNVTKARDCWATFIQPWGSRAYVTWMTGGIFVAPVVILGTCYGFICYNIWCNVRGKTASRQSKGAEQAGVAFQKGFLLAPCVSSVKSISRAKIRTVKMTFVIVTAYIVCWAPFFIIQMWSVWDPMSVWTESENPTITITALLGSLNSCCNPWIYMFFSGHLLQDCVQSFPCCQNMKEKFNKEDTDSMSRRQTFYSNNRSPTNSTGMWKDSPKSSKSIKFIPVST
Chain of 5-hydroxytryptamine receptor 4 (O70528 whole entry): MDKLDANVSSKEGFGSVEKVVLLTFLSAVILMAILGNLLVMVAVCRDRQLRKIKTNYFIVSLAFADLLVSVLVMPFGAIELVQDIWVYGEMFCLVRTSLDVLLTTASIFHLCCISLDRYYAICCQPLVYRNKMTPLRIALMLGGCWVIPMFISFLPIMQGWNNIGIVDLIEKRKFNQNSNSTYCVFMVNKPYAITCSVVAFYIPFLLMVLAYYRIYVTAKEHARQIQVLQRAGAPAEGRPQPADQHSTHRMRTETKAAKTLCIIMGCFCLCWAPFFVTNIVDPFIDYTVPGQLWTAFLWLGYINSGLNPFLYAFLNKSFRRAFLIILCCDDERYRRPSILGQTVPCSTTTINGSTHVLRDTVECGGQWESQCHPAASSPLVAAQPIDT

As for `CC(C)NCC(O)COc1ccc(CC(N)=O)cc1` (stereo not drawn) [ATENOLOL], the IC50 entry (in experiment [1]; in experiment [2]; against Vasopressin V1a receptor; in experiment [3]; in experiment [4]; against Glycine receptor) was “Not Active” throughout.

Take `CC(=O)[C@]1(O)Cc2c(O)c3c(c(O)c2[C@@H](O[C@H]2C[C@H](N)[C@H](O)[C@H](C)O2)C1)C(=O)c1ccccc1C3=O` [IDARUBICIN]: the IC50 result (in experiment [1]; in experiment [2]; against Vasopressin V1a receptor; in experiment [3]; in experiment [4]; against Glycine receptor) was “Not Active” each time.

As for `O=C(O)c1ccccc1` [BENZOIC ACID], the IC50 entry (in experiment [1]; in experiment [2]; at Vasopressin V1a receptor; in experiment [3]; in experiment [4]; against Glycine receptor) was “Not Active” throughout.

With `COc1ccccc1OCCNCC(O)COc1cccc2[nH]c3ccccc3c12` (stereo not drawn) [CARVEDILOL], the IC50 in experiment [2] (read-out: IC50) was 1090 nM; on Vasopressin V1a receptor, “Not Active”; in experiment [3] it was “Not Active”; in experiment [4] it was “Not Active”; at Glycine receptor it was “Not Active”; against Estrogen receptor beta, “Not Active”. In addition, the inhibition constant (Ki) in experiment [2] (read-out: Ki) is 181 nM.

In the case of `C=CCO` [ALLYL ALCOHOL], the IC50 entry (in experiment [1]; in experiment [2]; against Vasopressin V1a receptor; in experiment [3]; in experiment [4]; against Glycine receptor) was “Not Active” in each case.

For `O=c1[nH]cnc2c1ncn2[C@H]1CC[C@@H](CO)O1` [DIDANOSINE], the IC50 result (in experiment [1]; in experiment [2]; against Vasopressin V1a receptor; in experiment [3]; in experiment [4]; on Glycine receptor) was “Not Active” each time.

In the case of `C=C(Cl)Cl` [1,1-DICHLOROETHENE], the IC50 entry (in experiment [1]; in experiment [2]; on Vasopressin V1a receptor; in experiment [3]; in experiment [4]; at Glycine receptor) was “Not Active” throughout.

For `Oc1ccccc1` [PHENOL], the half-inhibitory concentration (IC50) entry (in experiment [1]; in experiment [2]; against Vasopressin V1a receptor; in experiment [3]; in experiment [4]; against Glycine receptor) was “Not Active” throughout.

As for `Cc1c(N)nc([C@H](CC(N)=O)NC[C@H](N)C(N)=O)nc1C(=O)N[C@H](C(=O)N[C@H](C)[C@@H](O)[C@H](C)C(=O)N[C@H](C(=O)NCCc1nc(-c2nc(C(=O)NCCC[S+](C)C)cs2)cs1)[C@@H](C)O)[C@@H](O[C@@H]1O[C@@H](CO)[C@@H](O)[C@H](O)[C@@H]1O[C@H]1O[C@H](CO)[C@@H](O)[C@H](OC(N)=O)[C@@H]1O)c1c[nH]cn1.[Br-]` [BLEOMYCIN A2], the IC50 entry (in experiment [1]; in experiment [2]; at Vasopressin V1a receptor; in experiment [3]; in experiment [4]; on Glycine receptor) was “Not Active” in each case.

For the molecule `COC(=O)Nc1nc2ccc(Sc3ccccc3)cc2[nH]1` [FENBENDAZOLE], the 50% inhibitory concentration (IC50) result (in experiment [1]; in experiment [2]; against Vasopressin V1a receptor; in experiment [3]; in experiment [4]; against Glycine receptor) was “Not Active” throughout.

For the molecule `Nc1ccc(C(=O)O)c(O)c1` [AMINOSALICYLIC ACID], the IC50 entry (in experiment [1]; in experiment [2]; against Vasopressin V1a receptor; in experiment [3]; in experiment [4]; on Glycine receptor) was “Not Active” in each case.

Regarding `OC[C@H]1O[C@@H]2O[C@H]3[C@H](O)[C@@H](O)[C@@H](O[C@H]4[C@H](O)[C@@H](O)[C@@H](O[C@H]5[C@H](O)[C@@H](O)[C@@H](O[C@H]6[C@H](O)[C@@H](O)[C@@H](O[C@H]7[C@H](O)[C@@H](O)[C@@H](O[C@H]8[C@H](O)[C@@H](O)[C@@H](O[C@H]1[C@H](O)[C@H]2O)O[C@@H]8CO)O[C@@H]7CO)O[C@@H]6CO)O[C@@H]5CO)O[C@@H]4CO)O[C@@H]3CO` [BETADEX], the IC50 result (in experiment [1]; in experiment [2]; at Vasopressin V1a receptor; in experiment [3]; in experiment [4]; against Glycine receptor) was “Not Active” each time.

Regarding `C[C@H]1C[C@H]2[C@@H]3CCC4=CC(=O)C=C[C@]4(C)[C@@]3(F)[C@@H](O)C[C@]2(C)[C@@]1(O)C(=O)CO` [BETAMETHASONE], the IC50 result (in experiment [1]; in experiment [2]; against Vasopressin V1a receptor; in experiment [3]; in experiment [4]; against Glycine receptor) was “Not Active” each time.

`CNC[C@H](O)c1ccc(O)c(O)c1` [EPINEPHRINE]: the IC50 entry (in experiment [2]; at Vasopressin V1a receptor; in experiment [3]; in experiment [4]; against Glycine receptor) was “Not Active” in each case.

For `ClC1=C(Cl)[C@]2(Cl)[C@@H]3[C@@H]4C[C@@H]([C@H]5O[C@@H]45)[C@@H]3[C@@]1(Cl)C2(Cl)Cl` [DIELDRIN], the IC50 entry (in experiment [1]; in experiment [2]; on Vasopressin V1a receptor; in experiment [3]; in experiment [4]; at Glycine receptor) was “Not Active” each time.

Turning to `Nc1ccc(Cc2ccc(N)cc2)cc1`, the half-inhibitory concentration (IC50) result (in experiment [1]; in experiment [2]; at Vasopressin V1a receptor; in experiment [3]; in experiment [4]; on Glycine receptor) was “Not Active” in each case.

For `Cc1cc(C(C)(C)C)c(O)c(C)c1CC1=NCCN1` [OXYMETAZOLINE], the IC50 result (in experiment [2]; on Vasopressin V1a receptor; in experiment [3]; in experiment [4]; against Glycine receptor; at Estrogen receptor beta) was “Not Active” throughout.

Consider `C[N+](C)(C)CCOC(N)=O.[Cl-]` [CARBACHOL], for which the IC50 entry (in experiment [1]; in experiment [2]; against Vasopressin V1a receptor; in experiment [3]; in experiment [4]; at Glycine receptor) was “Not Active” in each case.

Take `O=C1c2ccccc2C(=O)C1c1ccccc1` [PHENINDIONE]: the IC50 entry (in experiment [1]; in experiment [2]; on Vasopressin V1a receptor; in experiment [3]; in experiment [4]; against Glycine receptor) was “Not Active” throughout.

Regarding `NC(N)=Nc1nc(CSCCC(N)=NS(N)(=O)=O)cs1` [FAMOTIDINE], the 50% inhibitory concentration (IC50) result (in experiment [1]; in experiment [2]; at Vasopressin V1a receptor; in experiment [3]; in experiment [4]; against Glycine receptor) was “Not Active” each time.

With `c1ccc2sc(SSc3nc4ccccc4s3)nc2c1` [BENZOTHIAZYL DISULFIDE], the IC50 entry (in experiment [1]; in experiment [2]; at Vasopressin V1a receptor; in experiment [3]; in experiment [4]; against Glycine receptor) was “Not Active” each time.

For the molecule `NS(=O)(=O)c1cc(C(=O)O)c(NCc2ccco2)cc1Cl` [FUROSEMIDE], the IC50 result (in experiment [1]; in experiment [2]; at Vasopressin V1a receptor; in experiment [3]; in experiment [4]; at Glycine receptor) was “Not Active” in each case.

Turning to `CC12CCC(CC1)C(C)(C)O2` [EUCALYPTOL], the half-inhibitory concentration (IC50) result (in experiment [1]; in experiment [2]; against Vasopressin V1a receptor; in experiment [3]; in experiment [4]; at Glycine receptor) was “Not Active” throughout.

The record behind these values is ChEMBL document CHEMBL1909046, “DrugMatrix in vitro pharmacology data”.
